Source: US20040106545A1, “Compounds and methods for modulating cell adhesion” (priority 1996, published 2004)

How the values were obtained:
[1] = system: Human saphenous vein vascular smooth muscle cells; assay: Vascular smooth muscle cell apoptosis and death in aggregates (agarose-coated wells); format: cell-based; details: 0.5 mg/mL
Protocol: Human saphenous vein vascular smooth muscle cells were explanted from surplus segments of vein from patients undergoing coronary artery bypass surgery. Cells were maintained in Dulbecco's modified essential medium supplemented with […], 2 mmol/L L-glutamine and 10% fetal calf serum and were grown in agarose-coated wells. Under these conditions the cells are unable to attach to the underlying substratum and adhere to one another by cell-cell contacts only, forming aggregates. The percentage of dead cells was assessed by staining with Trypan blue or by fixing the cells and staining with Hoescht (H-33342). Trypan blue stain is absorbed only by non-viable cells when the integrity of the cell membrane is breached (Freshney, R. (1987) Culture of Animal Cells: A Manual of Basic Technique, p. 117, Alan R. Liss, Inc., New York) whereas Hoescht stain enters living cells (Shapiro (1981) Cytometry 2, 143-150).

L1 = L1 (Homo sapiens, UniProt P32004); assay: Neurite outgrowth on L1 expressing 3T3 monolayers (Example 2); format: cell-based, mouse; parameters: expressed in transfected cells; host or cells: 3T3 fibroblasts (monolayer); mouse post-natal day 3 cerebellar neurons on top; details: 500 μg/mL
SKOV3 tumors [2] = assay: Human ovarian (SKOV3) tumors grown in nude mice: tumor volume and histology; format: in vivo, mouse
Protocol: (§1) SKOV3 cells (ATCC) were grown to 70% confluence in Minimum Essential Medium (Life Technologies, Grand Island, N.Y.) supplemented with 10% Fetal Bovine Serum (Wisent, St. Bruno, Quebec) in a humidified atmosphere containing 5% CO2. Cells were then dissociated with 0.02% PBS/EDTA. Total cell count and viable cell number was determined by trypan blue stain and a hemacytometer.
Approximately 1×10^7 cells were resuspended in 400 μl saline and injected in 6-week-old CD-1 nude mice (female, Charles River) subcutaneously. After 20 days of continuous tumor growth, tumor size was about 100 mm^3. The tumor-bearing animals were then injected intraperitoneally every day for 4 consecutive days with 20 mg/kg of the representative peptide modulating agent N—Ac-CHAVC-NH2 (SEQ ID NO:10) and saline, for experimental and control respectively. Mice were sacrificed by cervical dislocation 4 days after final injection.
Tumor tissue was dissected and fixed in PBS with 4% paraformaldehyde for 48 hours. Specimens were then dehydrated in a series of alcohol incubations, and embedded in paraffin wax. Tissues were sectioned, rehydrated and stained with hematoxylin/eosin for morphological purposes. Representative sections obtained from treated and untreated mice are shown in FIGS. 28B and 28A, respectively.
Within similar experiments, tumor-bearing nude mice as described above were injected intraperitoneally with 2 mg/kg of the representative peptide modulating agent N—Ac-CHAVC-NH2 (SEQ ID NO:10) and saline, for experimental and control respectively. Injections were performed every day for 4 days. Mice were sacrificed 24 hours after the last injection. Tumor tissue was fixed, sectioned and stained as described above. Representative sections obtained from treated and untreated mice are shown in FIGS. 30A and 30B, respectively.
In a similar study, the effect of N—Ac-CHAVC-NH2 (SEQ ID NO:10) on ovarian tumor growth was evaluated at 2 mg/kg and 0.2 mg/kg. Mice were treated as described above with saline alone, 2 mg/kg peptide or 0.2 mg/kg peptide once per day for 5 days. The percent change in tumor volume (relative to the tumor size at day 1) was determined.

SKOV3 tumors [3] = assay: Induction of apoptosis in SKOV3 tumors in nude mice (Apoptag); format: in vivo, mouse
Protocol: as §1
Approximately 1×10^7 cells were resuspended in 400 μl saline and injected in 6-week-old CD-1 nude mice (female, Charles River) subcutaneously. After 20 days of continuous tumor growth, tumor size was about 4.0 mm. The tumor-bearing animals were then injected intraperitoneally every day with 20 mg/kg of the representative peptide modulating agent N—Ac-CHAVC-NH2 (SEQ ID NO:10) or saline, for 48 hours, 96 hours, 120 hours or 168 hours. […]
Tumor tissue was dissected and fixed in PBS with 4% paraformaldehyde for 48 hours. Specimens were then dehydrated in a series of alcohol incubations, and embedded in paraffin wax. Apoptosis was assessed using the Apoptag kit (Intergen, Purchase N.Y.) according to the manufacturer's protocol, with slight modifications. More specifically, sections were deparaffinized and re-hydrated. After a five minute wash with PBS, the slides were treated with 20 μg/ml Proteinase K in PBS for 15 minutes at room temperature. This was followed by two washes with distilled water (2 minutes each wash). […]

[4] = system: 3T3 cells not expressing N-cadherin, N-CAM, or L1 (control cells); assay: Neurite outgrowth on control 3T3 monolayers (Example 2); format: cell-based, mouse; details: 500 μg/ml
Protocol: Neurons were cultured on monolayers of 3T3 cells transfected with cDNA encoding N-cadherin essentially as described by Doherty and Walsh, Curr. Op. Neurobiol. 4:49-55, 1994; Williams et al., Neuron 13:583-594, 1994; Hall et al., Cell Adhesion and Commun. 3:441-450, 1996; Doherty and Walsh, Mol. Cell. Neurosci. 8:99-111, 1994; Safell et al., Neuron 18:231-242, 1997. Briefly, monolayers of control 3T3 fibroblasts and 3T3 fibroblasts that express N-cadherin were established by overnight culture of 80,000 cells in individual wells of an 8-chamber well tissue culture slide. 3000 cerebellar neurons isolated from post-natal day 3 mouse brains were cultured for 18 hours on the various monolayers in control media (SATO/2%FCS), or media supplemented with various concentrations of the cyclic peptide N—Ac-CHAVC-NH2 (SEQ ID NO:10) or a control peptide without the HAV sequence (N—Ac-CHGVC-NH2; SEQ ID NO:11). The cultures were then fixed and stained for GAP43, which specifically binds to the neurons and their neurites. The length of the longest neurite on each GAP43 positive neuron was then measured by computer assisted morphometry.

Sequence of L1 (P32004 20-1257): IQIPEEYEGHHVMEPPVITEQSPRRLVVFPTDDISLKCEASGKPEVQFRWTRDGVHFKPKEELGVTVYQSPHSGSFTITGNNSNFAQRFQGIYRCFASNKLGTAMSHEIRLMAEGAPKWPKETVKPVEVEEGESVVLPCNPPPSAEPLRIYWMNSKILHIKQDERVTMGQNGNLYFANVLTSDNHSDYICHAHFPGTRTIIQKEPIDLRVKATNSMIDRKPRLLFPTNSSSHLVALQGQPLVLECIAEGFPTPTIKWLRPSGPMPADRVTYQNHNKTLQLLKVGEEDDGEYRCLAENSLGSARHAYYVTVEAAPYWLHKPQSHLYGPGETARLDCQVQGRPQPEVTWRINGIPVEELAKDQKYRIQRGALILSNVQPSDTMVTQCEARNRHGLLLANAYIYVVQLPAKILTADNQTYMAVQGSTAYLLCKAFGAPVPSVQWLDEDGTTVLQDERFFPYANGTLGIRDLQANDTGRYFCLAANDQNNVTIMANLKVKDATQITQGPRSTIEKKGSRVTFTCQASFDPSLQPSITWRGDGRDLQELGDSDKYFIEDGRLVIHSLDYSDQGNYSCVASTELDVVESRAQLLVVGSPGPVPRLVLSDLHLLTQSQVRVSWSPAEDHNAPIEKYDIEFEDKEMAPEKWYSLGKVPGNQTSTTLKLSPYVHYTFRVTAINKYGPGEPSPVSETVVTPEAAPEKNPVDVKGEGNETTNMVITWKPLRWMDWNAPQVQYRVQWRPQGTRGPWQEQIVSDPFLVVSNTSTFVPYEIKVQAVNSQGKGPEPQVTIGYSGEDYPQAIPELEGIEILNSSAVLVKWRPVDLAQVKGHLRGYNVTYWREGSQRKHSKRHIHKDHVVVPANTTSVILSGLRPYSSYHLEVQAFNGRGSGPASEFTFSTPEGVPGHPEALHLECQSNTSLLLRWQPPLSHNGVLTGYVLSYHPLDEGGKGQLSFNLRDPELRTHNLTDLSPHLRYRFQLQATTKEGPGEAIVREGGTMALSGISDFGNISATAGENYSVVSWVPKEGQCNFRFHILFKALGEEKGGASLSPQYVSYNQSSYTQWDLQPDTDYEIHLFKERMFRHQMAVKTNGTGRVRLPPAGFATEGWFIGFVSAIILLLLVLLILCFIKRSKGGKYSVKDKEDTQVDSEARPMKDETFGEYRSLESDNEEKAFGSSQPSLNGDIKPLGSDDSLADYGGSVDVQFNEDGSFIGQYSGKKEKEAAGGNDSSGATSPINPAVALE

In the case of CC(=O)N[C@H]1CSSC[C@@H](C(N)=O)NC(=O)[C@H](C(C)C)NC(=O)[C@H](C)NC(=O)[C@H](Cc2c[nH]cn2)NC1=O [N—Ac—CHAVC—NH2, N-Ac-Cys-His-Ala-Val-Cys-NH2], the “aggregation of vascular smooth muscle cells” value [1] is reported as “inhibits aggregation”, the “increase in apoptosis and cell death in aggregates” value ([1]; 24 hr, n=4, p<0.05) is reported as 2 fold and the “inhibition of neurite outgrowth on 3T3 cells expressing L1” value (L1) is reported as “did not inhibit neurite outgrowth”. The “change in tumor volume” value (SKOV3 tumors [2]; 0.2 mg/kg once per day for 5 days) was “grew at a slower rate than tumors treated with saline”, the “effect on tumor blood vessels and tumor growth” value (SKOV3 tumors [2]; 2 mg/kg intraperitoneally every day for 4 days, Von Willebrand Factor VIII stain) was “capable of damaging tumor blood vessels and stopping tumor growth in vivo” and the “change in tumor volume” value (SKOV3 tumors [2]; 2 mg/kg once per day for 5 days) was “slight reduction in volume over the five day study”. For the same compound, the “tumor growth / tumor size” value (SKOV3 tumors [2]; 20 mg/kg intraperitoneally every day for 4 consecutive days) was “prevents detectable tumor growth and results in a substantial decrease in tumor size”, the “apoptotic cells in tumor sections” value (SKOV3 tumors [3]; 20 mg/kg ip every day for 48, 96, 120 or 168 hours) was “show an increase in apoptotic cells with longer treatment” and the “apoptotic cells in tumor sections” value (SKOV3 tumors [3]; 20 mg/kg once daily for four days, sacrificed 11 days after the last treatment) was “extensive area of apoptotic cells within the center of the tumor”. The “inhibition of neurite outgrowth on control 3T3 cells” value [4] was “did not inhibit neurite outgrowth”.
